In the supplement of paper PMC10290057:
Where a name gives a salt, the structure may show the parent alone.

How the values were obtained:
HCT116 [1] = experiment: AC50 cell viability (CellTiter-Glo); higher = less potent; conditions: 48 h
HCT116 [2] = experiment: efficacy (fitted maximal change in viability relative to DMSO control); higher = less cytotoxic (negative = loss of viability); conditions: 48 h
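Wherever AC50 cell viability (CellTiter-Glo) is given: HCT116 colorectal carcinoma cells screened at five concentrations per compound, luminescent viability scaled between DMSO wells and empty wells on each plate, curves fitted per compound.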
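Wherever efficacy (fitted maximal change in viability relative to DMSO control) is given: Luminescence-based viability readout, five doses per compound, normalized against on-plate DMSO and empty-well controls, followed by dose-response curve fitting for every drug.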

CN1CCN(CC1)C2=CC3=C([NH]C(=N3)C/4=C(\N)C5=C(F)C=CC=C5NC4=O)C=C2 [Dovitinib]
AC50 cell viability (HCT116 [1]): 8.33 µM
efficacy (HCT116 [2]): -106%

CN1CCN(c2ncc(-c3cc(Cl)cc(Cl)c3Cl)c(N)n2)CC1 [Sipatrigine]
AC50 cell viability (HCT116 [1]): 18.6 µM
efficacy (HCT116 [2]): -74.6%

Clc1ccc(C2(c3ccc(-c4cn[nH]c4)cc3)CCNCC2)cc1 [AT-7867]
AC50 cell viability (HCT116 [1]): 18.6 µM
efficacy (HCT116 [2]): -87.4%

CCC(=O)N1CCN(CC1)C2=C(C=C(C=C2)N3C(=O)\C=C/C4=C3C5=CC(=CC=C5N=C4)C6=CN=C7C=CC=CC7=C6)C(F)(F)F [Torin-1]
AC50 cell viability (HCT116 [1]): 0.0723 µM
efficacy (HCT116 [2]): -60%

C[C@@]12OC(=O)[C@@]1(NC(=O)[C@@H]2CCCl)[C@@H](O)[C@H]\3CCC\C=C3 [Marizomib]
AC50 cell viability (HCT116 [1]): 0.118 µM
efficacy (HCT116 [2]): -92.6%

O=C1[C@H](Cc2ccc(O)cc2)N2C(=O)CCN(C(=O)NCc3ccccc3)[C@H]2CN1Cc1cccc2ccccc12 [ICG-001]
AC50 cell viability (HCT116 [1]): 2.09 µM
efficacy (HCT116 [2]): -67.2%

CN1CCN(c2cc(C(=O)Nc3ccc4c(c3)-c3c(c(C(N)=O)nn3-c3ccc(F)cc3)CC4)c(Cl)cn2)CC1 [PHA-408]
AC50 cell viability (HCT116 [1]): 20.9 µM
efficacy (HCT116 [2]): -98.2%

COc1cc2c(NC3CCN(C4CCCCC4)CC3)nc(N3CCCN(C(C)C)CC3)nc2cc1OCCCN1CCCCC1 [UNC-0646]
AC50 cell viability (HCT116 [1]): 2.95 µM
efficacy (HCT116 [2]): -102%

CNC1CCC(N(Cc2cccc(-c3ccncc3)c2)C(=O)c2sc3c(F)ccc(F)c3c2Cl)CC1 (stereo not given) [Hh-Ag1.5]
AC50 cell viability (HCT116 [1]): 13.2 µM
efficacy (HCT116 [2]): -115%

COc1ccc(C(=O)CC2(O)C(=O)Nc3c(Cl)ccc(Cl)c32)cc1 (stereo not given) [YK-4-279]
AC50 cell viability (HCT116 [1]): 1.18 µM
efficacy (HCT116 [2]): -57.1%

C[C@@H](Oc1cc(-c2cnn(C3CCNCC3)c2)cnc1N)c1c(Cl)ccc(F)c1Cl [Crizotinib]
AC50 cell viability (HCT116 [1]): 4.17 µM
efficacy (HCT116 [2]): -100%

COc1cc2nccc(Oc3ccc(NC(=O)Nc4cc(C)on4)c(Cl)c3)c2cc1OC [Tivozanib (AV-951)]
AC50 cell viability (HCT116 [1]): 11.8 µM
efficacy (HCT116 [2]): -80.3%

CCC[C@@H](C=O)NC(=O)[C@H](CC(C)C)NC(=O)[C@H](CC(C)C)NC(=O)OCc1ccccc1 [MG-115]
AC50 cell viability (HCT116 [1]): 0.661 µM
efficacy (HCT116 [2]): -93.3%

C[S+](=O)([O-])c1ccc(-c2nnc(/C=C/c3nnc(-c4ccc(C#N)cc4)o3)n2-c2ccccc2Cl)nc1 [G-007-LK]
AC50 cell viability (HCT116 [1]): 14.8 µM
efficacy (HCT116 [2]): -48.4%

Clc1ccccc1C(c1ccccc1)(c1ccccc1)n1ccnc1 [Clotrimazole]
AC50 cell viability (HCT116 [1]): 20.9 µM
efficacy (HCT116 [2]): -81.6%

CN(C)CC[C@H](CSc1ccccc1)Nc1ccc([S+](=O)([O-])NC(=O)c2ccc(N3CCN(Cc4ccccc4-c4ccc(Cl)cc4)CC3)cc2)cc1[N+](=O)[O-] [ABT-737]
AC50 cell viability (HCT116 [1]): 20.9 µM
efficacy (HCT116 [2]): -68.4%

FC1=CC=C(C=C1)N2/C=C\C=C(C(=O)NC3=CC=C(OC4=C5C=C[NH]C5=NC=C4)C(=C3)F)/C2=O [BMS-2]
AC50 cell viability (HCT116 [1]): 18.6 µM
efficacy (HCT116 [2]): -37.8%

CCOC1=CC=CC=C1N\2C(=O)C3=C(C=CC=C3)\N=C2C(C)N4CCN(CC4)C(=O)COC5=CC=C(Cl)C=C5 (stereo not given) [Erastin]
AC50 cell viability (HCT116 [1]): 3.32 µM
efficacy (HCT116 [2]): -70.4%

NC1=NC=CC2=C1N=C[N]2[C@@H]3\C=C(CO)/[C@@H](O)[C@H]3O [3-Deazaneplanocin A]
AC50 cell viability (HCT116 [1]): 0.59 µM
efficacy (HCT116 [2]): -55.4%

CO[C@@H](C)Cn1c(=O)n(C)c2cnc3ccc(-c4cncc(C(C)(C)O)c4)cc3c21
AC50 cell viability (HCT116 [1]): 1.05 µM
efficacy (HCT116 [2]): -82.3%

CN(C)CCOc1ccc(-c2nc(-c3ccncc3)c(-c3ccc4c(c3)CC/C4=N\O)[nH]2)cc1
AC50 cell viability (HCT116 [1]): 11.8 µM
efficacy (HCT116 [2]): -134%

CN1CC/C(CC1)=C3\c4ccccc4CCc2sccc23 [Pizotifen]
AC50 cell viability (HCT116 [1]): 23.5 µM
efficacy (HCT116 [2]): -73.5%

COc1cccc2c1C(=O)c1c(O)c3c(c(O)c1C2=O)C[C@@](O)(C(=O)CO)C[C@@H]3O[C@H]1C[C@H](N)[C@H](O)[C@H](C)O1 [Doxorubicin]
AC50 cell viability (HCT116 [1]): 0.372 µM
efficacy (HCT116 [2]): -75.3%

CN1CCN([C@H]2CC[C@H](n3cc(-c4ccc(Oc5ccccc5)cc4)c4c(N)ncnc43)CC2)CC1
AC50 cell viability (HCT116 [1]): 7.42 µM
efficacy (HCT116 [2]): -110%

CC(C)Nc1cc(-c2c[nH]c(C(=O)N[C@H](CO)c3cccc(Cl)c3)c2)c(Cl)cn1 [Ulixertinib]
AC50 cell viability (HCT116 [1]): 1.86 µM
efficacy (HCT116 [2]): -114%

CC[C@@]1(O)C(=O)OCc2c1cc1n(c2=O)Cc2cc3c(CN(C)C)c(O)ccc3nc2-1.Cl [Topotecan hydrochloride]
AC50 cell viability (HCT116 [1]): 0.59 µM
efficacy (HCT116 [2]): -93%

CC[C@]1(O)C[C@H]2CN(CCC3=C([NH]C4=C3C=CC=C4)[C@@](C2)(C(=O)OC)C5=CC6=C(C=C5OC)N(C=O)[C@H]7[C@](O)([C@H](OC(C)=O)[C@]8(CC)\C=C/CN9CC[C@]67[C@H]89)C(=O)OC)C1 [Vincristine sulfate]
AC50 cell viability (HCT116 [1]): 0.372 µM
efficacy (HCT116 [2]): -60.7%

COc1ccc2c(c1)[C@]1(C[C@H]1c1ccc3c(/C=C/c4ccc(CN5C[C@@H](C)O[C@@H](C)C5)cc4)n[nH]c3c1)C(=O)N2
AC50 cell viability (HCT116 [1]): 13.2 µM
efficacy (HCT116 [2]): -83.6%

CCNC1(C(N)=O)CCN(c2ncnc3c2nc(-c2ccccc2Cl)n3-c2ccc(Cl)cc2)CC1 [Otenabant]
AC50 cell viability (HCT116 [1]): 23.5 µM
efficacy (HCT116 [2]): -97.3%

C=CC(=O)N1CC/C(=C\c2ccc(F)c([N+](=O)[O-])c2)C(=O)/C(=C/c2ccc(F)c([N+](=O)[O-])c2)C1 [VLX-1570]
AC50 cell viability (HCT116 [1]): 0.295 µM
efficacy (HCT116 [2]): -81.4%

CO/C1=C/C(C)=C\[C@@H](C)[C@@H](O)[C@@H](C)C/C(C)=C\C=C/[C@H](OC)[C@@H]([C@@H](C)[C@@H](O)[C@H](C)[C@@]2(O)C[C@@H](O)[C@H](C)[C@@H](C(C)C)O2)OC1=O [Bafilomycin A1]
AC50 cell viability (HCT116 [1]): 0.035 µM
efficacy (HCT116 [2]): -81.9%

CCN1C(=O)\C(=C/C2=C(C)N=C(N)N=C12)C3=CC=N[NH]3 [Voxtalisib]
AC50 cell viability (HCT116 [1]): 5.25 µM
efficacy (HCT116 [2]): -60.4%

C[C@@H]\1COC(=N1)\NC2=CC3=C(C=C2)N=CN=C3NC4=CC(=C(OCC5=NC=CS5)C=C4)Cl [Varlitinib tosylate]
AC50 cell viability (HCT116 [1]): 16.6 µM
efficacy (HCT116 [2]): -87.5%

Clc1cc(Cl)cc(CNc2ncncc2-c2ccc3c(c2)OCO3)c1
AC50 cell viability (HCT116 [1]): 13.2 µM
efficacy (HCT116 [2]): -78.4%

CN[S+]([O-])(=O)NC1=NC=CC(=C1F)CC/2=C(C)/C3=CC=C(OC4=NC=CC=N4)C=C3OC2=O
AC50 cell viability (HCT116 [1]): 1.66 µM
efficacy (HCT116 [2]): -43.7%

OC[C@H](Cc1ccccc1)Nc1nc(Oc2ccc3c(c2)CCC3)nc2c1ncn2Cc1ccc(-c2ccccc2)cc1 [QS11]
AC50 cell viability (HCT116 [1]): 9.34 µM
efficacy (HCT116 [2]): -49.7%

CCCNC(=O)[C@H]1O[C@@H]1C(=O)N[C@H](C(=O)N1CCC[C@H]1C(=O)OC)C(C)CC (stereo not given in full) [CA-074 Me]
AC50 cell viability (HCT116 [1]): 18.6 µM
efficacy (HCT116 [2]): -88.8%

C[C@@]12O[C@@H](C[C@]1(O)CO)n1c3ccccc3c3c4c(c5c6ccccc6n2c5c31)CNC4=O [Lestaurtinib]
AC50 cell viability (HCT116 [1]): 1.05 µM
efficacy (HCT116 [2]): -63.8%

N[S+](=O)([O-])c1cccc2c1C(=O)c1cccc(O)c1C2=O [LLL-12]
AC50 cell viability (HCT116 [1]): 0.833 µM
efficacy (HCT116 [2]): -88%

CN(C)C(=O)c1ccc([S+](=O)([O-])c2ccc(NC(=O)[C@@](C)(O)C(F)(F)F)c(Cl)c2)cc1 [AZD-7545]
AC50 cell viability (HCT116 [1]): 5.9 µM
efficacy (HCT116 [2]): -33.1%

C/C=C(\C)C(=O)N[C@@H](c1ccccc1)[C@@H](O)C(=O)O[C@H]1C[C@@]2(O)[C@@H](OC(=O)c3ccccc3)[C@@H]3[C@]4(OC(C)=O)CO[C@@H]4C[C@H](O)[C@@]3(C)C(=O)[C@H](OC(C)=O)C(=C1C)C2(C)C [Cephalomannine]
AC50 cell viability (HCT116 [1]): 0.0263 µM
efficacy (HCT116 [2]): -63.5%

c1ccc(CNc2nc(NCc3ccccc3)c3ccccc3n2)cc1
AC50 cell viability (HCT116 [1]): 8.33 µM
efficacy (HCT116 [2]): -98.7%

CCNC(=O)C[C@@H]1\N=C(C2=CC=C(Cl)C=C2)/C3=C(C=CC(=C3)OC)[N]4C(=NN=C14)C [I-BET762]
AC50 cell viability (HCT116 [1]): 2.63 µM
efficacy (HCT116 [2]): -67%

C1=CC2=N/C(=N\c3ccc(OCCN4CCCC4)c(c3)COC/C=C/COCc3cccc2c3)N1 [Pacritinib]
AC50 cell viability (HCT116 [1]): 1.86 µM
efficacy (HCT116 [2]): -89.9%

CCOC(=O)CCNc1cc(N2CCc3ccccc3CC2)nc(-c2ccccn2)n1 [GSK-J4]
AC50 cell viability (HCT116 [1]): 2.95 µM
efficacy (HCT116 [2]): -90.6%

CC(/C=C/[C@@H]1C[C@]1(C)c1ccc2c(c1)C(C)(C)CCC2(C)C)=C\C(=O)O
AC50 cell viability (HCT116 [1]): 23.5 µM
efficacy (HCT116 [2]): -66.8%

Cc1ncc(NC(=O)c2ccc(CN3CCN(C)CC3)c(C(F)(F)F)c2)cc1Nc1nccc(-c2cccnc2)n1 [Flumatinib mesylate]
AC50 cell viability (HCT116 [1]): 18.6 µM
efficacy (HCT116 [2]): -95.8%

CC(C)(c1ccc(OCC(O)CO)cc1)c1ccc(OCC(O)CCl)cc1 (stereo not drawn) [Ralaniten (EPI-001)]
AC50 cell viability (HCT116 [1]): 18.6 µM
efficacy (HCT116 [2]): -37%

C[C@@H]1C[C@@H]([C@H](O)CC2CC(=O)NC(=O)C2)C(=O)[C@@H](C)C1 [Cycloheximide]
AC50 cell viability (HCT116 [1]): 0.468 µM
efficacy (HCT116 [2]): -68.6%

C=C1/C(=C\C=C2/CCC[C@]3(C)[C@@H]([C@H](C)/C=C/[C@H](C)C(C)C)CC[C@@H]23)C[C@@H](O)C[C@@H]1O [Doxercalciferol]
AC50 cell viability (HCT116 [1]): 23.5 µM
efficacy (HCT116 [2]): -85.4%

COC(=O)C1C2CC3c4[nH]c5cc(OC)ccc5c4CCN3CC2CC(OC(=O)c2cc(OC)c(OC)c(OC)c2)C1OC (stereo not given) [Reserpine]
AC50 cell viability (HCT116 [1]): 20.9 µM
efficacy (HCT116 [2]): -68.3%

C=C1C(=O)O[C@H]2C[C@H](C)C(/C=C/C(C)=O)=CC[C@H]12 [Xanthatin]
AC50 cell viability (HCT116 [1]): 2.63 µM
efficacy (HCT116 [2]): -76%

Cc1cc2c(F)c(Oc3ncnn4cc(OC[C@@H](C)O)c(C)c34)ccc2[nH]1 [Brivanib]
AC50 cell viability (HCT116 [1]): 9.34 µM
efficacy (HCT116 [2]): -80.3%

O=C(Nc1ccncc1)C(=O)c1cn(Cc2ccc(Cl)cc2)c2ccccc12 [Indibulin]
AC50 cell viability (HCT116 [1]): 0.295 µM
efficacy (HCT116 [2]): -70.9%

CC[C@@]1(O)C(=O)OCC/2=C1/C=C/3N(CC4=C(CCNC(C)C)C5=CC=CC=C5N=C34)C2=O [Belotecan]
AC50 cell viability (HCT116 [1]): 0.0166 µM
efficacy (HCT116 [2]): -80.8%
